A value given as a limit tells only on which side of the number the result lay.

One assay relates to Human alphaherpesvirus 1. Briefly: Inhibition against herpes simplex virus type 1, measured by a cytopathic effect inhibition assay with human foreskin fibroblast (HFF)cells infected with HSV; Inactive. In kind it is functional, organism-based. To be noted: Human alphaherpesvirus 1, HFF. (In general: Cytopathic effects are the visible damage that an infection or toxin causes in cultured cells.)

Another assay deals with Human alphaherpesvirus 2. Briefly: Inhibition against herpes simplex virus type 2, measured by a cytopathic effect inhibition assay with human foreskin fibroblast (HFF) cells infected with HSV; Inactive. Format: functional, organism-based. The settings on record: Human alphaherpesvirus 2, HFF.
Assay [1] concerns Hepatitis B virus. Briefly: Cytotoxicity when tested for inhibition against hepatitis B virus in HBV-producing human liver cell line 2.2.15. Format: functional. The settings on record: HepG2 2.2.15.
Assay [2] has as its system Hepatitis B virus. Briefly: Effective concentration required for inhibition against hepatitis B virus in HBV-producing human liver cell line 2.2.15. Format: functional, organism-based. The settings on record: HepG2 2.2.15.

What is called EC50 is the concentration giving half of the maximal effect. Turning to `Cc1cn([C@H]2C[C@H](O[Si]34OC(C)CN(CC(C)O3)CC(C)O4)[C@@H](CO)O2)c(=O)[nH]c1=O` (some centres undefined), the EC50 in the assay with Human alphaherpesvirus 1 and in the assay on Human alphaherpesvirus 2 was above 100 µg/mL each time.
The term CC50 denotes the concentration giving 50% cytotoxicity. High values mean lower toxicity to the cells, low ones greater toxicity to the cells. Consider `Cc1cn([C@H]2C[C@H](O[Si]34OCCN(CCO3)CCO4)[C@@H](CO)O2)c(=O)[nH]c1=O`, for which the cytotoxic concentration (CC50) in the assay on Hepatitis B virus [1] came out at 1.29 mM. Moreover, in the assay on Hepatitis B virus [2], the EC50 is above 0.01 mM.

The values above are taken from ChEMBL document CHEMBL1135000, “Stereoselective and improved syntheses and anticancer testing of 3'-O-silatranylthymidines” (Bioorg Med Chem Lett, 2002).
